Assay [1] addresses T1, 5-hydroxytryptamine receptor 1A (Rattus norvegicus, UniProt P19327).
T1 sequence (P19327 whole entry): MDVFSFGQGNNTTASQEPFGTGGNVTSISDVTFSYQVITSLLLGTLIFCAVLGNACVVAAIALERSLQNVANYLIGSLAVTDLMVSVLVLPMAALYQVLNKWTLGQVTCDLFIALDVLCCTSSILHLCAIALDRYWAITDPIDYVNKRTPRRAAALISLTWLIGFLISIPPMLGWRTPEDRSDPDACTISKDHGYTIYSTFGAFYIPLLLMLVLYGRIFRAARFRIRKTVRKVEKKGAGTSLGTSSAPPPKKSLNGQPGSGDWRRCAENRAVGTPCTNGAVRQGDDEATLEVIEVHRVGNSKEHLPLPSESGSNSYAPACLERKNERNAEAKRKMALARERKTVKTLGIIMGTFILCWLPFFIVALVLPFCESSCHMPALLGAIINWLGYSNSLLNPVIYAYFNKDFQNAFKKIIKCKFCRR
Put plainly: In vitro binding affinity towards 5-hydroxytryptamine 1A receptor was determined using [3H]8-OH-DPAT as radioligand in rat cerebral cortex membranes; […]. In kind it is cell membranes.

The target in assay [2] is T1, 5-hydroxytryptamine receptor 1A. Put plainly: In vitro binding affinity towards 5-hydroxytryptamine 1A receptor was determined using [3H]8-OH-DPAT as radioligand in rat cerebral cortex membranes. In kind it is cell membranes, Membrane.

What is called Ki is the equilibrium dissociation constant of an inhibitor or competing ligand from its target. High values mean lower affinity, low ones higher affinity.

With `c1ccc(C(c2ccccc2)(c2ccccc2)n2cnc3c(N4CCNCC4)cccc32)cc1`, the Ki entry in assay [1] is recorded as “Not Active”.
In assay [2], `O=C1C2CCCN2C(=O)N1CCCCN1CCN(c2cccc3[nH]cnc23)CC1` (centres undefined) displayed a Ki of 1.21 nM.
For `CN1CCN(c2cccc3[nH]cnc23)CC1`, in assay [2], the affinity, expressed as Ki, was 4.72 nM.
With `CN1CCN(c2cccc3c2ncn3C(c2ccccc2)(c2ccccc2)c2ccccc2)CC1`, the Ki result in assay [1] was “Not Active”.

For the origin of these results see ChEMBL document CHEMBL1131837, “Synthesis of new (benzimidazolyl)piperazines with affinity for the 5-HT1A receptor via Pd(0) amination of bromobenzimidazoles” (Bioorg Med Chem Lett, 1999).
